Measurements: paper PMC9457556, “Newly Designed Quinazolinone Derivatives as Novel Tyrosinase Inhibitor: Synthesis, Inhibitory Activity, and Mechanism” (Molecules, 2022)
Like-named read-outs stand apart in the source and are kept apart here.

Columns and labels:
mushroom tyrosinase [1] = test: Fluorescence quenching of mushroom tyrosinase; assay type: binding; details: Q1 at 36 μM; excitation 290 nm, emission peak 333 nm
Protocol: The intrinsic interaction mechanisms of Q1 on the tyrosinase were investigated by the fluorescence quenching analysis. The fluorescence emission spectrum was recorded as ranging from 310 to 550 nm at a 290 nm excitation wavelength. […] However, the fluorescence intensity of tyrosinase reduced gradually as the concentration of the citral derivative increased.
(§1) We used fluorescence analysis (Varian Cary Eclipse fluorescence spectrophotometer) to perform fluorescence experiment, and set the excitation wavelength at 290 nm. We mixed inhibitor solution, substrates of tyrosine/L-DOPA or enzyme solution, and sodium phosphate buffer (pH 6.8) at the volumetric ratio of 1:1:8 (v/v/v).

[2] = Fluorescence quenching of tyrosine; assay type: binding; details: Q1 from 0 to 36 μM; intensity 447.6 to 216.5
From the text: We also investigated the fluorescence quenching Q1 experiment regarding tyrosine activity, and recorded the fluorescence intensity of tyrosine in the range of […]. […] Thus, the compound was also a good binding agent for tyrosine in a dose-dependent manner.
as §1

[3] = Fluorescence quenching of L-DOPA; assay type: binding; details: Q1 from 0 to 36 μM; intensity 1619 to 879.9
Protocol: Finally, the fluorescence emission spectra of L-DOPA were tested in the solutions of Q1 with various concentrations. […] Similarly, the fluorescence emission intensity of Q1 disappeared when it was added to the solution. The results inferred that Q1 was also a good L-DOPA binding agent.
as §1

mushroom tyrosinase [4] = test: Kinetic studies of tyrosinase inhibition (enzyme concentration plots, Lineweaver-Burk plots); assay type: biochemical
Protocol: To ascertain the inhibition type and mechanism of Q1, we studied the relationship between the enzyme concentration and the remaining enzyme activity with various concentrations of Q1 (0, 15, 60, and 120 μM).
Different concentrations of the compound Q1 (0, 15, 60, and 120 μM) were applied to inhibit tyrosinase and obtain the kinetic behavior of tyrosinase catalysis. Lineweaver–Burk reciprocal plots were used to investigate the inhibition modes of Q1 on mushroom tyrosinase. […] Thus, Q1 could bind not only to the free enzymes but also to the enzyme–substrate complexes. […] Additionally, the value of KIS was measured to be 423.63 μM from the concentrations of the compound versus the vertical intercept.
We purchased mushroom tyrosinase (with specific activity 6680 U/mg), and L-3,4-dihydroxyphenyl-alanine (L-DOPA) from Sigma (St. Louis, MO, USA). We measured enzyme assay with L-DOPA as the substrate. We determined enzyme activity at 475 nm in the spectrophotometric experiments. We dissolved the test compounds in DMSO at 1 mM, which was diluted to the required concentration (0, 15, 30, 60, 120, 180, 240, 300 μM). We measured the reaction solution (3 mL), consisting 0.75 mL sodium phosphate buffer (0.1 M, pH 6.8), 1.8 mL H2O, 0.3 mL L-DOPA (2 mM), 0.1 mL test compound, and 0.05 mL enzyme (0.2 mg /L), at 30 °C. We replaced test samples as control. We determined each concentration in three experiments. We used the concentration that inhibited half of the enzyme activity (IC50) to measure the inhibitory effect of inhibitor. We investigated kinetic parameters with increasing concentrations of L-DOPA and test samples by the Lineweaver–Burk double-reciprocal plot and Dixon plot methods. We calculated the % inhibition of tyrosinase as follows: Inhibition (%) = [1 − B/A][…], where the A and B are the absorbances of the blank control and samples, respectively.

mushroom tyrosinase [5] = test: Mushroom tyrosinase enzyme assay with L-DOPA as substrate (475 nm); details: for IC50: L-DOPA oxidation, pH 6.8, 30 °C, mean of triplicate determinations ± standard deviation; for inhibitory activity against tyrosinase: result in words
Protocol: Firstly, the effect of the Q1compound against the tyrosinase activity was evaluated.
We measured enzyme assay with L-DOPA as the substrate. We determined enzyme activity at 475 nm in the spectrophotometric experiments. We dissolved the test compounds in DMSO at 1 mM, which was diluted to the required concentration (0, 15, 30, 60, 120, 180, 240, 300 μM). We measured the reaction solution (3 mL), consisting 0.75 mL sodium phosphate buffer (0.1 M, pH 6.8), 1.8 mL H2O, 0.3 mL L-DOPA (2 mM), 0.1 mL test compound, and 0.05 mL enzyme (0.2 mg /L), at 30 °C. We replaced test samples as control. We determined each concentration in three experiments. We used the concentration that inhibited half of the enzyme activity (IC50) to measure the inhibitory effect of inhibitor. We investigated kinetic parameters with increasing concentrations of L-DOPA and test samples by the Lineweaver–Burk double-reciprocal plot and Dixon plot methods. We calculated the % inhibition of tyrosinase as follows: Inhibition (%) = [1 − B/A]/100, where the A and B are the absorbances of the blank control and samples, respectively.

mushroom tyrosinase [6] = biological target: mushroom tyrosinase; parameters: method as in PMID 20638280; details: standard inhibitor; cited from earlier work

With `CC(C)=CCCC(C)=Cc1nc2ccccc2c(=O)[nH]1` [Compound Q1, 2-(2,6-dimethylhepta-1,5-dien-1-yl)quinazolin-4(3H)-one] the “relative fluorescence intensity of tyrosinase” value (mushroom tyrosinase [1]) was 39.45%, the “decrease of fluorescence intensity of tyrosine” value [2] was 51.63% and the “decrease of fluorescence intensity of L-DOPA” value [3] was 45.65%. The inhibition type (mushroom tyrosinase [4]; Lineweaver-Burk plots, Q1 at 0, 15, 60, 120 μM) was “mixed inhibition type”, the reversibility of inhibition (mushroom tyrosinase [4]; enzyme activity versus enzyme concentration, Q1 at 0, 15, 60, 120 μM) was “reversible” and the KIS (mushroom tyrosinase [4]; enzyme-substrate complex, from vertical intercept versus compound concentration) was 423.63 µM. It also gave a Ki (mushroom tyrosinase [4]; free enzyme, from plots of slope versus compound concentration, read-out: inhibitor constant (KI)) of 117 µM and an IC50 (mushroom tyrosinase [5]) of 103 ± 2 µM.

With `CC(C)=CCCC(C)=Cc1nc2cccc(F)c2c(=O)[nH]1` [Compound Q2, 2-(2,6-dimethylhepta-1,5-dien-1-yl)-5-fluoroquinazolin-4(3H)-one] the melting point was 189 to 191 °C and the IC50 (mushroom tyrosinase [5]) was 105 ± 1 µM.

Compound `CC(C)=CCCC(C)=Cc1nc2ccc(Cl)cc2c(=O)[nH]1` [Compound Q3, 6-chloro-2-(2,6-dimethylhepta-1,5-dien-1-yl)quinazolin-4(3H)-one] has a melting point of 190 to 192 °C and an IC50 (mushroom tyrosinase [5]) of 168 ± 2 µM.

For `CC(C)=CCCC(C)=Cc1nc2cc(C)ccc2c(=O)[nH]1` [Compound Q4, 2-(2,6-dimethylhepta-1,5-dien-1-yl)-7-methylquinazolin-4(3H)-one], the melting point was 188 to 192 °C and the IC50 (mushroom tyrosinase [5]) was 253 ± 2 µM.

With `Cc1ccc(-c2nc3ccccc3c(=O)[nH]2)cc1` [Compound Q6, 2-(p-tolyl)quinazolin-4(3H)-one] the “inhibitory activity against tyrosinase” value (mushroom tyrosinase [5]) was “did not exhibit inhibitory activity”.

For `COc1ccc(-c2nc3ccccc3c(=O)[nH]2)cc1` [Compound Q7, 2-(4-methoxyphenyl)quinazolin-4(3H)-one], the “inhibitory activity against tyrosinase” value (mushroom tyrosinase [5]) was “did not exhibit inhibitory activity”.

For `OC[C@H]1O[C@@H](Oc2ccc(O)cc2)[C@H](O)[C@@H](O)[C@@H]1O` [arbutin], the IC50 (mushroom tyrosinase [6]) is listed as 180 µM.
